Test results published in patent publication US11111222B2, “Hydroxyeicosatrienoic acid compounds and their use as therapeutic agents” (THE REGENTS OF THE UNIVERSITY OF MICHIGAN, priority 2016, dated 2021).

Experiments:
[1] = system: washed platelets from WT or 12-LOX−/− mice; assay: Platelet aggregation, washed murine platelets (lumi-aggregometer); type: cell-based, mouse; details: 25 μM 12-LOX oxylipin, 10 min, vs vehicle
Description: The 12-LOX null C57BL/6 (12-LOX^−/−) mice were generated using homozygous breeding pairs and wild-type (WT) C57BL/6 ([…]) mice were purchased (Jackson Laboratory). […] Mouse blood was diluted with equal volumes of Tyrode's buffer (10 mM HEPES, 11.9 mM sodium bicarbonate, 127.2 mM sodium chloride, 5 mM potassium chloride, 0.4 mM sodium phosphate monobasic, 1 mM magnesium chloride, and 5 mM D-glucose) and centrifuged at 200×g. Platelet-rich-plasma (PRP) was transferred to a tube containing 10× acid citrate dextrose solution (ACD) (2.5% sodium citrate, 1.5% citric acid, and 2% D-glucose) and apyrase (0.02 U/mL), and centrifuged at 2000×g. Platelet count was adjusted to 3×10^8 platelets/mL with Tyrode's buffer for all studies.
A lumi-aggregometer (Chrono-log model 700D) was used to measure platelet aggregation under stirring conditions (1100 rpm) at 37° C. Prior to agonist stimulation platelets were incubated with a preselected PUFA or oxylipin for 10 minutes.

Gαs = assay: [35S]GTPγS binding to immunoprecipitated Gαs, platelet membranes; type: biochemical; details: 25 μM; human platelet membranes; vs DMSO
Description: PRP was isolated from whole blood as described above and then incubated with 1 mM aspirin for 1 hour at 37° C. Platelets were pelleted at 2000 g for 10 min in the presence of 10×ACD and apyrase. The pelleted platelets were washed with Tyrode's and centrifuged at 2000×g with 10×ACD for 10 min at room temperature. The platelets were flash frozen with liquid nitrogen and then resuspended in cold detergent-free TME buffer (50 mM Tris-HCl, pH 7.5, 20 mM MgCl2, 2 mM EDTA, and 100 mM NaCl) with 1 μM GDP and protease and phosphatase inhibitors to lyse the platelets. The lysed platelets were centrifuged at 1500 g at 4° C. for 5 min. The supernatant was collected and centrifuged at 100,000×g for 30 min at 4° C. The pelleted membranes were resuspended in TME buffer with 1 μM GDP and stored at −80° C. prior to use. Fatty acid metabolites, agonists, or DMSO and [^35S]GTPγS (10 nM) were added to platelet membranes (60 μg/reaction) on ice, and the tubes were immediately transferred to a 30° C. water bath shaker for 20 min. The reaction was terminated by the addition of ice-cold IP buffer (50 mM Tris-HCl, pH 7.5, 20 mM MgCl2, 150 mM NaCl, 0.5% Nonidet P-40, 0.33% aprotinin, 0.1 mM GDP, and 0.1 mM GTP). The samples were pre-cleared with Protein A agarose beads and normal rabbit IgG for 30 min on a nutator at 4° C. and then aliquoted equally into two tubes containing either normal rabbit IgG or a Gs antibody that had been conjugated to Protein A agarose beads. The samples were incubated on a nutator for 1 hr at 4° C. and washed 4 times with IP buffer and 1 time in TME buffer. The samples were boiled in 0.5% SDS for 30 sec, and the supernatants were collected following brief centrifugation. The supernatants were analyzed in 8 mL of scintillation fluid. The background counts for the normal rabbit IgG (50-200 cpm) for each sample were subtracted from the anti-Gs immunoprecipitated samples prior to analyzing the data.

[2] = system: thrombus formation (platelet and fibrin) in cremaster arterioles; assay: Laser-induced cremaster arteriole thrombosis model; type: in vivo, mouse
Description: Wild type (WT) or 12-LOX^−/− mice (12 weeks of age) were anesthetized by intraperitoneal injection of ketamine/xylazine (100 mg/kg) prior to the exposure of the cremaster muscle arterioles under a dissecting microscope with constant perfusion of preheated bicarbonate-buffered saline (Reheman et al., J Thromb Haemost 3:875-883, 2005; Reheman et al., Blood 113:1809-1817, 2009; Wang et al., J Clin Invest 124:4281-4293, 2014). Anti-platelet (DyLight 488 anti-GPIb, 1 μg/g) and anti-fibrin (Alexa Fluor 647, 0.3 μg/g) antibodies were administered via jugular vein catheter prior to intravital microscopy. DGLA (50 mg/kg) or DMSO (vehicle control) were dissolved in a formulation of 5% DMSO and 45% PEG300 in sterile 1×PBS and then intravenously injected into mice 10 minutes prior to induction of thrombosis. 12(S)-HETrE (6 mg/kg) or equal volume of DMSO (vehicle control) was also intravenously injected into mice 10 minutes prior to induction of thrombosis. Multiple independent thrombi were induced in the arterioles (30-50 μm diameter) in each mouse by a laser ablation system (Ablate! photoablation system; Intelligent Imaging Innovations, Denver, Colo., USA). Images of thrombus formation were acquired in real-time under 63× water-immersion objective with a Zeiss Axio Examiner Z1 fluorescent microscope equipped with solid laser launch system (LaserStack; Intelligent Imaging Innovations) and high-speed sCMOS camera. All captured images were analyzed on Slidebook (Intelligent Imaging Innovations Inc., Denver, Colo., USA).

[3] = WT mice, 6 mg/kg i.v. 10 min before laser injury, vs vehicle

Q: `CCCCC/C=C\C[C@H](O)/C=C/C=C\CCCCCCC(=O)O` [12(S)-HETrE, 12(S)-hydroxy-8Z,10E,14Z-eicosatrienoic acid] was tested. Which platelet aggregation ([1]; 12-LOX−/− mouse platelets, EC80 PAR4-AP (200 μM) or collagen (2 or 5 μg/mL)) did it give?
A: inhibited the aggregation

Q: What about the platelet aggregation ([1]; WT mouse platelets, EC80 PAR4-AP (100 μM) or collagen (5 μg/mL)) of the same compound?
A: inhibited the aggregation

Q: And the “[35S]GTPγS binding to immunoprecipitated Gαs” value (Gαs)?
A: significant increase in [^35S]GTPγS binding

Q: And the platelet accumulation ([2]; 12-LOX−/− mice, 6 mg/kg i.v., vs 12-LOX−/− alone)?
A: significant inhibition of platelet accumulation

Q: And the fibrin accumulation ([2]; 12-LOX−/− mice, 6 mg/kg i.v., vs vehicle)?
A: no difference in fibrin accumulation

Q: And the “thrombus size and stability by fibrin accumulation” value [2, 3]?
A: significantly smaller and less stable thrombi

Q: And the “thrombus size and stability by platelet accumulation” value [2, 3]?
A: significantly smaller and less stable thrombi
